The text below walks through data of patent publication US20240208992A1, “MACROCYCLES AS CFTR MODULATORS” (Idorsia Pharmaceuticals Ltd, priority 2021, published 2024).

For the assay, the target named is human F508del-CFTR (Homo sapiens, UniProt P13569, DEL508-508). Briefly: F508del-CFTR cell surface expression (corrector activity), DiscoveRx ß-galactosidase complementation chemiluminescence assay in recombinant U2OS cell line.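 As to all read-outs here: U2OS cells co-expressing ProLink-tagged F508del-CFTR and a membrane-anchored enzyme acceptor, where more surface CFTR restores β-galactosidase activity measured by chemiluminescence.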 The following applies: for EC50: EC50, F508del-CFTR cell surface expression, U2OS cells, 16h compound incubation, geomean values; for Emax: U2OS, in relation to Emax of corrector lumacaftor (=100%), arithmetic mean values.
Chain of human F508del-CFTR (P13569 with tags, fused parts or gaps DEL508-508): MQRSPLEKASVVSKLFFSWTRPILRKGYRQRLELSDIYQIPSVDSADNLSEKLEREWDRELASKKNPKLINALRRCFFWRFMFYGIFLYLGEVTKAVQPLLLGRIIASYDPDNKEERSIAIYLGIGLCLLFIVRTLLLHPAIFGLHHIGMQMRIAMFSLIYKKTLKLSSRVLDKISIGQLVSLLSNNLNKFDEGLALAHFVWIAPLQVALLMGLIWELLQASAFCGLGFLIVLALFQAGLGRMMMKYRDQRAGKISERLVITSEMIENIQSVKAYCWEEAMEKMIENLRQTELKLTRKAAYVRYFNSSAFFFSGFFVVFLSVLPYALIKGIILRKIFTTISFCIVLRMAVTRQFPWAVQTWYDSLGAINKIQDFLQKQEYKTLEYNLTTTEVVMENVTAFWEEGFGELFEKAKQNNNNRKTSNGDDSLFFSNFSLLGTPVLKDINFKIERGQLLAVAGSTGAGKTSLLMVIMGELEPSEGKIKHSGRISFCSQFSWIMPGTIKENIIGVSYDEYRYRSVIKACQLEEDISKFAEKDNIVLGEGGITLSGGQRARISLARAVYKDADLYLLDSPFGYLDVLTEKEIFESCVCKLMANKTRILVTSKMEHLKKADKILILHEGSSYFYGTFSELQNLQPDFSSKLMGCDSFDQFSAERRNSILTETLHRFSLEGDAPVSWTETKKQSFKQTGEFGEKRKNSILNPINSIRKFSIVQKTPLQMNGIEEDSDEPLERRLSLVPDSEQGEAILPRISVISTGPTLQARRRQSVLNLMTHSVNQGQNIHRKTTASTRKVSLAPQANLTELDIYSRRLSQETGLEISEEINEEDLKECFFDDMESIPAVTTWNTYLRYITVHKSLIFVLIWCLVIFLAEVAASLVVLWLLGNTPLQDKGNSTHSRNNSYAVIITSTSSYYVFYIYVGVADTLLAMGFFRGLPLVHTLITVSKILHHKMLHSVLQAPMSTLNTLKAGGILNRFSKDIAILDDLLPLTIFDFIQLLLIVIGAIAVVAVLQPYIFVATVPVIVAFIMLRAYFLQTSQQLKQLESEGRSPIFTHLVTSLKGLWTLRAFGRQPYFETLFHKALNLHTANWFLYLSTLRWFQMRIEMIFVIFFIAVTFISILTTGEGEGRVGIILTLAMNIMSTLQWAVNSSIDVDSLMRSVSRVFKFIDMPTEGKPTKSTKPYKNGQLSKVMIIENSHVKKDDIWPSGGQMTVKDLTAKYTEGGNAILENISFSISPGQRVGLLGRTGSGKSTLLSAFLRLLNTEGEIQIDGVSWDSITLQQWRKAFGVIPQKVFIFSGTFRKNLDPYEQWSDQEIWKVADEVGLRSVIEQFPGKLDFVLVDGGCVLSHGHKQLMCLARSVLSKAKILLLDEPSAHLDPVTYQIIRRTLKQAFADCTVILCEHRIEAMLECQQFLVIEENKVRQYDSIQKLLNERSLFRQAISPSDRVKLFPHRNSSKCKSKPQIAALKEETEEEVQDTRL

Regarding `COCCCS(=O)(=O)N1CCN2C(=O)[C@H](CC(C)C)N(C)C(=O)C[C@@H](C(=O)NCCc3cccc(OC)c3)NC(=O)c3c(ccc4ccccc34)OC[C@@H](Cc3ccccc3)NC(=O)[C@H]2C1` [Example 743, (4aR,7R,18S,22S)-7-benzyl-22-isobutyl-N-(3-methoxyphenethyl)-3-((3-methoxypropyl)sulfonyl)-21-methyl-5,16,20,23-tetraoxo-2,3,4,4a,5,6,7,8,16,17,18,19,20,21,22,23-hexadecahydro-1H-naphtho[1,2-p]pyrazino[2,1-f][1]oxa[4,7,10,14]tetraazacycloheptadecine-18-carboxamide], the EC50 came to 207 nM and the Emax amounted to 217%.
On the same counts, the results for `COc1cccc(CCNC(=O)[C@@H]2CC(=O)N(C)[C@@H](CC(C)C)C(=O)N3CCN(S(=O)(=O)c4cncc(OC)c4)C[C@@H]3C(=O)N[C@H](Cc3ccccc3)COc3ccc4ccccc4c3C(=O)N2)c1` [Example 744, (4aR,7R,18S,22S)-7-benzyl-22-isobutyl-N-(3-methoxyphenethyl)-3-((5-methoxypyridin-3-yl)sulfonyl)-21-methyl-5,16,20,23-tetraoxo-2,3,4,4a,5,6,7,8,16,17,18,19,20,21,22,23-hexadecahydro-1H-naphtho[1,2-p]pyrazino[2,1-f][1]oxa[4,7,10,14]tetraazacycloheptadecine-18-carboxamide] are 178 nM and 239%.
In the case of `COc1cccc(CCNC(=O)[C@@H]2CC(=O)N(C)[C@@H](CC(C)C)C(=O)N3CCN(S(=O)(=O)CCN4CCOCC4)C[C@@H]3C(=O)N[C@H](Cc3ccccc3)COc3ccc4ccccc4c3C(=O)N2)c1` [Example 745, (4aR,7R,18S,22S)-7-benzyl-22-isobutyl-N-(3-methoxyphenethyl)-21-methyl-3-((2-morpholinoethyl)sulfonyl)-5,16,20,23-tetraoxo-2,3,4,4a,5,6,7,8,16,17,18,19,20,21,22,23-hexadecahydro-1H-naphtho[1,2-p]pyrazino[2,1-f][1]oxa[4,7,10,14]tetraazacycloheptadecine-18-carboxamide], the concentration for a half-maximal effect (EC50) was found to be 693 nM and the Emax was determined as 206%.
Consider `COc1cccc(CCNC(=O)[C@@H]2CC(=O)N(C)[C@@H](CC(C)C)C(=O)N3CCN(S(=O)(=O)CC4CCOCC4)C[C@@H]3C(=O)N[C@H](Cc3ccccc3)COc3ccc4ccccc4c3C(=O)N2)c1` [Example 746, (4aR,7R,18S,22S)-7-benzyl-22-isobutyl-N-(3-methoxyphenethyl)-21-methyl-5,16,20,23-tetraoxo-3-(((tetrahydro-2H-pyran-4-yl)methyl)sulfonyl)-2,3,4,4a,5,6,7,8,16,17,18,19,20,21,22,23-hexadecahydro-1H-naphtho[1,2-p]pyrazino[2,1-f][1]oxa[4,7,10,14]tetraazacycloheptadecine-18-carboxamide], for which the EC50 was found to be 211 nM and the Emax amounted to 213%.
Take `COc1cccc(CCNC(=O)[C@@H]2CC(=O)N(C)[C@@H](CC(C)C)C(=O)N3CCN(S(=O)(=O)c4ccccn4)C[C@@H]3C(=O)N[C@H](Cc3ccccc3)COc3ccc4ccccc4c3C(=O)N2)c1` [Example 747, (4aR,7R,18S,22S)-7-benzyl-22-isobutyl-N-(3-methoxyphenethyl)-21-methyl-5,16,20,23-tetraoxo-3-(pyridin-2-ylsulfonyl)-2,3,4,4a,5,6,7,8,16,17,18,19,20,21,22,23-hexadecahydro-1H-naphtho[1,2-p]pyrazino[2,1-f][1]oxa[4,7,10,14]tetraazacycloheptadecine-18-carboxamide]: the 50% effective concentration (EC50) was 234 nM and the Emax amounted to 213%.

What is called EC50 is the concentration needed to bring the measured effect to its halfway point. A word on the Emax: it is the maximal effect, on the per cent scale that the assay sets.
